Entries after “also recorded” stand apart in the source; their conditions may differ. Counter-ions that a name gives are not always drawn. Like-named read-outs stand apart in the source and are kept apart here.
Legend:
mice [1] = assay: Formalin test (ETSP, area under the curve); format: in vivo; settings: ip
mice [2] = assay: iv pentylenetetrazole (PTZ) seizure threshold test; settings: compound ip
Description: They were also evaluated in the iv pentylenetetrazole (PTZ) test.
Data are expressed as the mean PTZ dose ± SEM for n = 10 that induced clonus or twitch in mice exposed to a particular dose of the test compound

rats [3] = assay: Maximal electroshock seizure (MES) test; format: in vivo
[4] = test system: organotypic hippocampal slice cultures; assay: Neuroprotection primary screen, excitotoxin kainic acid; format: cell-based; settings: kainic acid 20 µM, 10 and 100 µM compound
Description: Compound 2 : ADD t{umber, b890s0 Batch: lB- Date Compteted. Ect\,t""201 0 […]
Excilotoxin: llGinic ncia Insult Duration: l+ Hours Solvent: […]
Ai lxn zopr.,r aZ lxa zopr,r Ae lre zoprta
Bz lr<n zopn er ]ra zopr',t l:+aot a r ooprt/|*aa9o8o l oopM lgaeota t oot,tr,t*gB9o8o t oopM […]
The "Primary screen Experiment" is a qualitative assessment of the ability of a compound to prevent excitotoxic cell dearh. organotypic hippocampal slice clltures are treated with N-methyl-D-aipartate lNuoa; o; kainic acid (KA) to induce neuronal cell death. Propidium iodide (Pl), a membrane-impermeant compound, is included in all welts of the culture plate.
Dying cells have compromised cell membranes, thus Pl may diffuse into the cell, intercalate with DNA and ftuoresce. Thus, the intensity of the Pl fluorescence is proportional to the amount of cell death in the individual slices. Hippocampal slice cultures are treated with the excitotoxin alone, or where indicated above, with the excitotoxin and either one eltu/o investigational compounds at the concentrations indicated. lf neuroprotection occurs as a consequence of the added […]
been treated with the excitotoxin alone.
(1 picture or pasted object on this page, not shown here)

Na+ channel (site 2) = assay: Radioligand binding; design: species or system rat
mice [5] = assay: Subcutaneous pentylenetetrazole seizure test (ScPTZ, SCMET); format: in vivo; settings: ip, […]
Description: The assays were carried out within the Epilepsy Therapy Screening Program (ETSP, previously known as the Anticonvulsant Screening Program, ASP), Epilepsy Branch, National Institute of Neurological and Communicative Disorders and Stroke, National Institutes of Health in Rockville, MD, USA [23].

5-HT7 = 5-HT7 (Homo sapiens, UniProt P34969); assay: Radioligand binding
Description: (§1) Radioligand binding. Radioligand binding assays were performed at Eurofins CEREP (France). The results are expressed as a percent of control specific binding (measured specific binding*100/control specific binding) and as a percent inhibition of control specific binding (100-(measured specific binding*100)/control specific binding) obtained in the presence of the test compounds. The IC50 values (concentration causing a half-maximal inhibition of control specific binding) and Hill coefficients (nH) were determined by non-linear regression analysis of the competition curves generated with mean replicate values using Hill equation curve fitting (Y = D + [A-D]/[1 + (C/C50)^nH], where Y = specific binding, A = left asymptote of the curve, D = right asymptote of the curve, C = compound concentration, C50 = IC50, and nH = slope factor). This analysis was performed using software developed at Cerep (Hill software) and validated by comparison with data generated by the commercial software SigmaPlot® 4.0 for Windows® (© 1997 by SPSS Inc.). The inhibition constants (Ki) were calculated using the Cheng Prusoff equation (Ki = IC50/[1 + L/KD], where L = concentration of radioligand in the assay, and KD = affinity of the radioligand for the receptor). A scatchard plot is used to determine the Kd.

M4 = target: T1, M4 (Homo sapiens, UniProt P08173); assay: Radioligand binding
T1 sequence (P08173 1-479): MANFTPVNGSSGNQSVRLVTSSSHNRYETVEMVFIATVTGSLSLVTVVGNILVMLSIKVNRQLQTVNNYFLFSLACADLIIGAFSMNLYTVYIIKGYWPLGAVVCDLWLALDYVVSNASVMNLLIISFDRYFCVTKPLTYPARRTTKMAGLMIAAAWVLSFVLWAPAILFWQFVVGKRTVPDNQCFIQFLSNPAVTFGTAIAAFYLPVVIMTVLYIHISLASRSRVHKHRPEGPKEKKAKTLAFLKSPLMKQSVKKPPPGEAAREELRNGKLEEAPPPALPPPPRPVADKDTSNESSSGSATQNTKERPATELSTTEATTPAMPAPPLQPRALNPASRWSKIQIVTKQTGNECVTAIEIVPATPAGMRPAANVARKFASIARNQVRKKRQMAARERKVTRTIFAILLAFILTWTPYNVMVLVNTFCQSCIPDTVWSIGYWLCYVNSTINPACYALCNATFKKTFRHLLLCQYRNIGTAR
Description: as §1

5-HT transporter = 5-HT transporter (Homo sapiens, UniProt P31645); assay: Radioligand binding
Description: as §1

rats [6] = assay: SCMET (subcutaneous Metrazol) test; format: in vivo; settings: for SCMET ED50: rats
rats [7] = format: in vivo; settings: ip
α2 (non-selective) = assay: Radioligand binding; design: species or system rat
Description: as §1

Sigma (non-selective) = assay: Radioligand binding; design: species or system rat
Description: as §1

[8] = test system: Ca2+ channel (L, verapamil site) (phenylalkylamine); assay: Radioligand binding; design: species or system rat
Description: as §1

mice [9] = assay: 6 Hz test; format: in vivo; settings: mice; for ED50: Mus musculus
Description: The 6 Hz model test was carried out according to the protocol originally described by Brown et al. [54] and more recently by Barton et al. [55] and Kamiński et al. [47] and is a model of pharmacoresistant epilepsy [56].

mice [10] = test system: mice
mice [11] = assay: Corneal kindling; format: in vivo; settings: ip
[12] = 0.1 μM, read-out: % of control specific binding
[13] = 1 μM, read-out: % of control specific binding
[14] = 10 μM, read-out: % of control specific binding
[15] = 100 μM, read-out: % of control specific binding
[16] = 3 μM, read-out: % of control specific binding

5-HT transporter, sequence (P31645 whole entry): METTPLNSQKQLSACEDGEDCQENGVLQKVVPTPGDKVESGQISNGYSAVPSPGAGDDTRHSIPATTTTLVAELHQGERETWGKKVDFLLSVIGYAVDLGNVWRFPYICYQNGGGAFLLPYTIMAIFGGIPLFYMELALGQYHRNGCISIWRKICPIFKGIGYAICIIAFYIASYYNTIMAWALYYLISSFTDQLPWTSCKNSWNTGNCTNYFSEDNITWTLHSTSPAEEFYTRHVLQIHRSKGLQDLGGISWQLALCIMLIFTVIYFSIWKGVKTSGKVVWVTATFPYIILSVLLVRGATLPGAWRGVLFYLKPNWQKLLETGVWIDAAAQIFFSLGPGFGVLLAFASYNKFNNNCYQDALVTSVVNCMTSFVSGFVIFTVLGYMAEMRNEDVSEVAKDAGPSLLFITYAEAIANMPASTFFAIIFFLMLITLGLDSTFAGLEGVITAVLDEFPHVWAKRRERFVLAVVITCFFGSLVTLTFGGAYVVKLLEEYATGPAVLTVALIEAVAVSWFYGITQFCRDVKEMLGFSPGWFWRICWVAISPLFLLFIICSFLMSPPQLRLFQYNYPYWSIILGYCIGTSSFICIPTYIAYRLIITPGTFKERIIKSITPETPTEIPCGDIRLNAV
5-HT7, sequence (P34969 whole entry): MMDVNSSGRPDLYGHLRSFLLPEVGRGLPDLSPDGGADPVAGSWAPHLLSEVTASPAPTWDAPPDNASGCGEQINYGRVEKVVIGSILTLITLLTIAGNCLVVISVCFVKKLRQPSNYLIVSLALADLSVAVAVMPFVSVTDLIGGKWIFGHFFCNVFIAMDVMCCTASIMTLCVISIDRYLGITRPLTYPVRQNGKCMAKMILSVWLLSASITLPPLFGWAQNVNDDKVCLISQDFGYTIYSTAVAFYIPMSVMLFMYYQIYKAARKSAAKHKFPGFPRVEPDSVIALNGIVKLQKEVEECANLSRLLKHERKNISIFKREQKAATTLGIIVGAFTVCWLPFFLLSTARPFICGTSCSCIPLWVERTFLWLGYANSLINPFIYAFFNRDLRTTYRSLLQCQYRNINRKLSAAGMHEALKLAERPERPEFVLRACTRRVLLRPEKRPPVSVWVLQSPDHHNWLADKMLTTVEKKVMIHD

## CCC(CO)NCCOc1c(C)cccc1Cl (stereo not drawn) [Compound 4, R,S-2-((2-(2-chloro-6-methylphenoxy)ethyl)amino)butan-1-ol]
Mice [1]; 21 mg/kg
  Area under the curve (I phase): 124.8 ± 32.7
  Area under the curve (II phase): 569.2 ± 405.0
  Area under the curve, % of control (I phase): 64.0%
  Area under the curve, % of control (II phase): 72.7%
Mice [1]; 21 mg/kg, listed as 348014
  Area under the curve (I phase): 124.8
  Area under the curve (II phase): 569.2
Mice [2]
  influence on seizure threshold: lowered the seizure threshold; also recorded: showed activity in lowering the seizure threshold
Rats [3]; ip
  MES TPE: 0.25 h
Rats [3]; ip, […]
  MES ED50: 7.3 (5.39–9.89) mg/kg
Rats [3]; po
  MES ED50: > 60 mg/kg
  MES PI: > 3.55
Rats [3]; po, […]
  MES ED50: 67.69 (43.01–93.82) mg/kg
[4]
  Test Result (neuroprotection): No Neuroprotection
Na+ channel (site 2); 100 μM
  % of control specific binding: 11.6%
Mice [5]; mice
  SCMET ED50: > 64 mg/kg
5-HT7; 100 μM
  % of control specific binding: 26.4%
M4; 100 μM
  % of control specific binding: 30.5%
5-HT transporter; 100 μM
  % of control specific binding: 5.1%
Rats [6]; ip, […]
  SCMET ED50: > 50 mg/kg
Rats [6]; po
  SCMET ED50: > 240 mg/kg
Rats [7]; at 40 mg/kg, 0.25–2.25 h
  Hippocampal kindling avg. seizure score by Racine (0–5): 5
α2 (non-selective); 100 μM
  % of control specific binding: 27.7%
Sigma (non-selective); 100 μM
  % of control specific binding: -2.7%
[8]; 100 μM
  % of control specific binding: 38.5%
Mice [9]; 32 mA, ip
  6 Hz ED50: 32.4 (28.4–36.0) mg/kg
  6 Hz TPE: 0.25 h
Mice [9]; 44 mA, ip
  6 Hz ED50: 29.75 (28.3–31.5) mg/kg
  6 Hz TPE: 0.25 h
Mice [10]; female mice, ip
  MES TPE: 0.25 h
Mice [10]; female mice, ip, […]
  MES ED50: 11.64 (10.55–12.47) mg/kg
Mice [10]; mice, ip, […]
  MES ED50: 21.44 (18.63–25.32) mg/kg
Mice [10]; mice, po
  MES PI: 6.12
  MES TPE: 0.5 h
Mice [10]; mice, po, 0.5 h
  MES ED50: 58.13 (45.58–68.93) mg/kg
Mice [11]
  Corneal kindling TPE: 0.25 h
Mice [11]; […]
  Corneal kindling ED50: 19.51 (11.86–28.41) mg/kg

## CCC(CO)NCCOc1c(C)cccc1Cl (stereo not drawn) [KM-408, R,S-2-((2-(2-chloro-6-methylphenoxy)ethyl)amino)butan-1-ol hydrochloride]
Mice [1]; 13.25 mg/kg
  Area under the curve (I phase): 113.7 ± 65.6
  Area under the curve (II phase): 489.7 ± 211.3
Mice [2]
  influence on seizure threshold: the effect was not observed
Mice [2]; listed as KM408
  influence on seizure threshold: effect was not shown
Rats [3]; Rattus norvegicus, ip, 0.25 h
  ED50: 5.69 mg/kg
Rats [3]; ip
  MES PI: 9.55
  MES TPE: 0.25 h
[4]; listed as 367061
  Test Result (neuroprotection): No neurop rotection observed
Na+ channel (site 2)
  IC50: 15 µM
  Ki: 14 µM
Na+ channel (site 2); 0.3 μM
  % of control specific binding: 101.1%
Na+ channel (site 2); 3 μM
  % of control specific binding: 92.0%
Na+ channel (site 2); 30 μM
  % of control specific binding: 40.3%
Mice [5]; Mus musculus, read-out: SCMET ED50
  ED50: > 100 mg/kg
5-HT7
  IC50: 18 µM
  Ki: 6.5 µM
5-HT7; 0.01 μM, read-out: % of control specific binding
  remaining activity at 0.01 µM: 107%
5-HT7; [12]
  remaining activity at 0.1 µM: 106%
5-HT7; [13]
  remaining activity at 1 µM: 105%
5-HT7; [14]
  remaining activity at 10 µM: 66.1%
5-HT7; [15]
  remaining activity at 100 µM: 20.2%
M4
  IC50: 24 µM
  Ki: 15 µM
M4; [12]
  remaining activity at 0.1 µM: 98%
M4; [13]
  remaining activity at 1 µM: 92%
M4; [16]
  remaining activity at 3 µM: 82.7%
M4; [14]
  remaining activity at 10 µM: 67%
M4; [15]
  remaining activity at 100 µM: 23.8%
5-HT transporter
  IC50: 3.6 µM
  Ki: 1.7 µM
5-HT transporter; 0.003 μM, read-out: % of control specific binding
  remaining activity at 0.003 µM: 105%
5-HT transporter; 0.03 μM, read-out: % of control specific binding
  remaining activity at 0.03 µM: 112%
5-HT transporter; 0.3 μM, read-out: % of control specific binding
  remaining activity at 0.3 µM: 92.8%
5-HT transporter; [16]
  remaining activity at 3 µM: 61%
5-HT transporter; 30 μM, read-out: % of control specific binding
  remaining activity at 30 µM: 11.5%
Rats [6]; Rattus norvegicus, ip, […], read-out: SCMET ED50
  ED50: > 54 mg/kg
Rats [7]; […]
  Hippocampal kindling: death at: 200 mg/kg
α2 (non-selective)
  IC50: 24 µM
  Ki: 10 µM
α2 (non-selective); 0.01 μM
  % of control specific binding: 101.3%
α2 (non-selective); 0.1 μM
  % of control specific binding: 111.6%
α2 (non-selective); 1 μM
  % of control specific binding: 101.2%
α2 (non-selective); 10 μM
  % of control specific binding: 73.4%
α2 (non-selective); 100 μM
  % of control specific binding: 23.5%
Sigma (non-selective)
  IC50: 0.089 µM
  Ki: 0.072 µM
Sigma (non-selective); 0.001 μM
  % of control specific binding: 104.0%
Sigma (non-selective); 0.01 μM
  % of control specific binding: 97.1%
Sigma (non-selective); 0.1 μM
  % of control specific binding: 50.0%
Sigma (non-selective); 1 μM
  % of control specific binding: 13.1%
Sigma (non-selective); 10 μM
  % of control specific binding: 1.4%
[8]
  IC50: 43 µM
  Ki: 22 µM
[8]; 0.1 μM
  % of control specific binding: 101.9%
[8]; 1 μM
  % of control specific binding: 104.4%
[8]; 3 μM
  % of control specific binding: 93.6%
[8]; 10 μM
  % of control specific binding: 80.9%
[8]; 100 μM
  % of control specific binding: 34.8%
Mice [9]; 32 mA, ip
  6 Hz TPE: 0.25 h
Mice [9]; 44 mA, ip
  6 Hz TPE: 0.25 h
Mice [9]; 44 mA, po
  6 Hz TPE: 0.25 h
Mice [9]; ip, 32 mA
  ED50: 29.4 mg/kg
Mice [9]; ip, 44 mA
  ED50: 35.1 mg/kg
Mice [9]; po, 44 mA
  ED50: 281 mg/kg
Mice [10]; mice, ip
  MES TPE: 0.25 h
Mice [11]; at 30 mg/kg, […]
  Corneal kindling avg. seizure score by Racine (0–5): 2.5
